ChEMBL document CHEMBL1201862, “PubChem BioAssay data set” (2004)
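Dose response: 5 concentrations. Exposure: 48 h. Format: 96-well plates. Endpoint: linear interpolation; highest concentration if not reached. GI50 is the concentration that inhibits growth by half.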 Activity calls are given as the source filed them. Rule as the data show it: active = GI50 up to about 1.1 µM and inactive = higher.

What was measured:
Assay in all cases: DTP human tumour cell line panel, 48 h
[1] = tested on: SK-MEL-28
[2] = tested on: M14
[3] = tested on: EKVX
[4] = tested on: SK-MEL-5
[5] = tested on: Hs-578T
[6] = tested on: 786-0
[7] = tested on: IGROV-1
[8] = tested on: RPMI-8226
[9] = tested on: HCT-116
[10] = tested on: ACHN
[11] = tested on: SK-OV-3
[12] = tested on: SR
[13] = tested on: A549
[14] = tested on: SF-268
[15] = tested on: CAKI-1
[16] = tested on: HL-60
[17] = tested on: UACC-62
[18] = tested on: HCT-15
[19] = tested on: HT-29
[20] = tested on: UO-31
[21] = tested on: OVCAR-3
[22] = tested on: U-251
[23] = tested on: NCI-H226
[24] = tested on: SK-MEL-2
[25] = tested on: SF-295
[26] = tested on: CCRF-CEM
[27] = tested on: RXF 393
[28] = tested on: A498
[29] = tested on: SNB-75
[30] = tested on: T47D
[31] = tested on: LOX IMVI
[32] = tested on: HCC 2998
[33] = tested on: Malme-3M
[34] = tested on: K562
[35] = tested on: COLO 205
[36] = tested on: OVCAR-5
[37] = tested on: SN12C
[38] = tested on: PC-3
[39] = tested on: MDA-N
[40] = tested on: MOLT-4
[41] = tested on: OVCAR-4
[42] = tested on: UACC-257
[43] = tested on: OVCAR-8
[44] = tested on: NCI/ADR-RES
[45] = tested on: HOP-62
[46] = tested on: NCI-H460
[47] = tested on: MDA-MB-435
[48] = tested on: HOP-92
[49] = tested on: NCI-H522
[50] = tested on: SW-620
[51] = tested on: NCI-H23
[52] = tested on: SNB-19
[53] = tested on: DU-145
[54] = tested on: SF-539
[55] = tested on: MDA-MB-231

Question: CO[C@H]1O[C@@H]2OC3(C)CCC4[C@H](C)CCC([C@H]1C)[C@]42OO3 (stereo not given in full) was tested. Which GI50 [1] did it give?
Answer: Its GI50 is > 100 µM (inactive).

Question: What about the GI50 [2] of the same compound?
Answer: The GI50 was > 100 µM (inactive).

Question: And the GI50 [3]?
Answer: Its GI50 is > 100 µM (inactive).

Question: And the GI50 [4]?
Answer: Its GI50 is 38 µM (inactive).

Question: And the GI50 [5]?
Answer: Its GI50 is > 100 µM (inactive).

Question: And the GI50 [6]?
Answer: Its GI50 is > 100 µM (inactive).

Question: What about the GI50 [7] of the same compound?
Answer: The GI50 was > 100 µM (inactive).

Question: What about the GI50 [8] of the same compound?
Answer: The GI50 was 12.1 µM (inactive).

Question: And the GI50 [9]?
Answer: Its GI50 is > 100 µM (inactive).

Question: What about the GI50 [10] of the same compound?
Answer: Its GI50 is > 100 µM (inactive).

Question: What about the GI50 [11] of the same compound?
Answer: Its GI50 is > 100 µM (inactive).

Question: What about the GI50 [12] of the same compound?
Answer: Its GI50 is 56.2 µM (inactive).

Question: What about the GI50 [13] of the same compound?
Answer: The GI50 was > 100 µM (inactive).

Question: What about the GI50 [14] of the same compound?
Answer: The GI50 was > 100 µM (inactive).

Question: What about the GI50 [15] of the same compound?
Answer: The GI50 was > 100 µM (inactive).

Question: What about the GI50 [16] of the same compound?
Answer: Its GI50 is 1.32 µM (inactive).

Question: And the GI50 [17]?
Answer: Its GI50 is > 100 µM (inactive).

Question: What about the GI50 [18] of the same compound?
Answer: The GI50 was greater than 100 µM.

Question: And the GI50 [19]?
Answer: The GI50 was > 100 µM (inactive).

Question: And the GI50 [20]?
Answer: Its GI50 is 24.8 µM (inactive).

Question: What about the GI50 [21] of the same compound?
Answer: The GI50 was 78.9 µM (inactive).

Question: What about the GI50 [22] of the same compound?
Answer: Its GI50 is > 100 µM (inactive).

Question: And the GI50 [23]?
Answer: The GI50 was > 100 µM (inactive).

Question: What about the GI50 [24] of the same compound?
Answer: Its GI50 is > 100 µM (inactive).

Question: And the GI50 [25]?
Answer: The GI50 was > 100 µM (inactive).

Question: And the GI50 [26]?
Answer: The GI50 was 19.1 µM (inactive).

Question: What about the GI50 [27] of the same compound?
Answer: The GI50 was > 100 µM (inactive).

Question: And the GI50 [28]?
Answer: Its GI50 is > 100 µM (inactive).

Question: And the GI50 [29]?
Answer: Its GI50 is 85.9 µM (inactive).

Question: What about the GI50 [30] of the same compound?
Answer: The GI50 was 91.6 µM (inactive).

Question: What about the GI50 [31] of the same compound?
Answer: Its GI50 is > 100 µM (inactive).

Question: What about the GI50 [32] of the same compound?
Answer: The GI50 was > 100 µM (inactive).

Question: What about the GI50 [33] of the same compound?
Answer: The GI50 was > 100 µM (inactive).

Question: And the GI50 [34]?
Answer: Its GI50 is 26.5 µM (inactive).

Question: What about the GI50 [35] of the same compound?
Answer: The GI50 was 28.2 µM (inactive).

Question: What about the GI50 [36] of the same compound?
Answer: Its GI50 is > 100 µM (inactive).

Question: What about the GI50 [37] of the same compound?
Answer: The GI50 was > 100 µM (inactive).

Question: What about the GI50 [38] of the same compound?
Answer: The GI50 was 76 µM (inactive).

Question: What about the GI50 [39] of the same compound?
Answer: The GI50 was > 100 µM (inactive).

Question: What about the GI50 [40] of the same compound?
Answer: Its GI50 is 36.6 µM (inactive).

Question: What about the GI50 [41] of the same compound?
Answer: Its GI50 is > 100 µM (inactive).

Question: What about the GI50 [42] of the same compound?
Answer: Its GI50 is > 100 µM (inactive).

Question: And the GI50 [43]?
Answer: Its GI50 is 53.6 µM (inactive).

Question: And the GI50 [44]?
Answer: The GI50 was 44.2 µM (inactive).

Question: And the GI50 [45]?
Answer: The GI50 was > 100 µM (inactive).

Question: And the GI50 [46]?
Answer: Its GI50 is > 100 µM (inactive).

Question: And the GI50 [47]?
Answer: Its GI50 is > 100 µM (inactive).

Question: What about the GI50 [48] of the same compound?
Answer: Its GI50 is > 100 µM (inactive).

Question: What about the GI50 [49] of the same compound?
Answer: The GI50 was > 100 µM (inactive).

Question: What about the GI50 [50] of the same compound?
Answer: The GI50 was > 100 µM (inactive).

Question: And the GI50 [51]?
Answer: Its GI50 is > 100 µM (inactive).

Question: And the GI50 [52]?
Answer: Its GI50 is > 100 µM (inactive).

Question: And the GI50 [53]?
Answer: The GI50 was > 100 µM (inactive).

Question: And the GI50 [54]?
Answer: Its GI50 is > 100 µM (inactive).

Question: What about the GI50 [55] of the same compound?
Answer: The GI50 was > 100 µM (inactive).
